Source: patent US8163709B2, “TAK1-D mediated induction of cell death in human cancer cells by specific sequence short double-stranded RNAS” (Board of Regents of the University of Texas System, priority 2008, dated 2012)
Entries after “also recorded” stand apart in the source; their conditions may differ.

Assays:
TLK1 [1] = assay: TLK1 protein level in NCI-H460 cells (Western blot); format: cell-based, human; settings: first 6 h after addition
Source text: FIGS. 3A-D illustrate the timecourse as well the downstream signaling events of dsRNA mediated Tak1-D activation in more detail. […] This activation is not triggered by siRNA si6 or by the non-targeting scrambled sequence siNT, even at later timepoints. […] The activation of TAK1-D leads to a phosphorylation of the MAPKKs of both stress activated protein kinase signaling pathways, indicated by the occurrence of activation phosphorylation on MKK3/6 and MKK4 (FIG. 3A). Consecutively activation of MKK3/6 leads to phosphorylation and activation of the p38 MAPK, while activation of MKK4 phosphorylates and activates SAPK/JNK. These mitogen activated protein kinase kinases phosphorylate and activate their respective substrates p38 MAP kinase and SAPK/JNK. […] This provided further confirmation, apart from the rapid occurrence of TAK1-D phosphorylation, that gene silencing effects of the siRNAs play no role in the phenomena described.

TLK1 [2] = assay: TLK1 post-transcriptional silencing in HeLa cells (Western blot); format: cell-based, human; settings: 48 h after transfection
Method: In order to test whether dsRNA molecules show the same cellular uptake and stability the efficiency of these molecules to post-transcriptionally silence the expression of TLK1 was determined as si6 as well as si5 siRNA are directed against the mRNA of this protein. […] As a loading control the unchanged expression levels of TAK1-A/B and 3-tubulin are shown in the two lower panels.

p38 = p38 activation in mouse peritoneal macrophages; format: cell-based; settings: 4 h
Method: It has been reported (Dempsey et al., 2000) that the splicing variant D of TAK1 could not be detected in many cell lines despite its expression in the parental tissue, most probably due to downregulation of the transcript during in vitro culture. Therefore, the inventors used macrophages 24 h after obtaining them from athymic NCR-NU/NU female mice by peritoneal lavage.

SAPK/JNK pathway = assay: Activation of the SAPK/JNK pathway in H460 cells (Western blot); format: cell-based, human; settings: for activation of the SAPK/JNK pathway (phosphorylation of MKK4, SAPK/JNK): H460 cells, 20 nM RNA, 2-6 h
HCC2279 cells = assay: Crystal Violet staining of HCC2279 cells; format: cell-based, human; settings: 48 h
Method: To test whether the dsRNA mediated activation of the stress-activated protein kinase cascade also leads to cell death in HCC2279 cells, the cells were plated in a 12 well multi-well plated, treated with siRNA si5 or as a control with siRNA si6 and stained with Crystal Violet 48 h later. […] The data presented as well as the widespread expression of Tak1-D in tissues like lung, brain, liver, and prostate (Dempsey et al., 2000) makes targeted activation of TAK1-D by specific dsRNA an interesting treatment opportunity for these types of cancer.

p38 MAP kinase pathway = assay: Activation of the p38 MAP kinase pathway in H460 cells (Western blot); format: cell-based, human; settings: for activation of the p38 MAP kinase pathway (phosphorylation of MKK3/6, p38 MAPK): H460 cells, 20 nM RNA, 2-6 h
Source text: Both siRNAs were directed against the mRNA of the same gene TLK1.

p38 MAPK = p38 MAPK cascade activation in HCC2279 cells (Western blot); format: cell-based, human
Source text: A possible application for the above mentioned findings in cancer therapy requires data on the effects of dsRNA mediated activation of Tak1-D in other tumors and in normal tissues. To test whether dsRNA mediated cell killing also occurs in other tumor cell lines, the NSCLC cell line HCC2279 was chosen. This cell line originated from an adenocarcinoma and was initially described by Wistuba et al. (1999).

H460 cells = assay: BrdU pulse labeling and flow cytometry of H460 cells; format: cell-based, human
Method: FIGS. 10A-D: Reaction of NCI-H460 cells to activation of p38 MAPK and SAPK/JNK. (FIG. 10A) BrdU labeling was used to determine the amount of NCI-H460 cells in the S phase of the cell cycle. Cells were pulse labeled with 100 μM BrdU for 15 minutes (0 and 4 h) or 10 μM for 1 h (24 h). Dot blots show DNA content versus BrdU signal. The number of S phase cells decreases within a few hours after treatment of cells with siRNA si5. (FIG. 10B) Flow cytometry dot blots, showing the cellular DNA content versus the amount of cleaved Caspase 3. Within 24 h after exposure to siRNA si5 cells in G1 as well as in the S phase of the cell cycle show Caspase 3 activation. (FIG. 10C) Activation of Caspase 3 leads to PARP cleavage and to (FIG. 10D) nuclear chromatin condensation visible in Hoechst 33342 stained NCI-H460 cells, typical of apoptosis.
To test this hypothesis, H460 cells were pulse labeled with BrdU for 15 min at various time points after treatment with siRNA si5 and analyzed by flow cytometry immediately afterwards. […] In particular, it can be seen that the fraction of cells in the S phase of the cell cycle drops from 48% in untreated cells to 27% 4 h after incubating the cells with 20 nM siRNA si5.

[3] = H460 stably transfected with K63W vs wt and vector, 4 h

Substance	protein levels of Tlk1 (TLK1 [1])	expression level of TLK1 (TLK1 [2])	p38 activation by phosphorylation (p38)	activation of the SAPK/JNK pathway (phosphorylation of MKK4, SAPK/JNK) (SAPK/JNK pathway)	toxicity, crystal violet (HCC2279 cells; HCC2279, concentration range tested)	activation of the p38 MAP kinase pathway (phosphorylation of MKK3/6, p38 MAPK) (p38 MAP kinase pathway)	activation of the SAPK/JNK pathway (phosphorylation of MKK4, SAPK/JNK) (SAPK/JNK pathway; listed as Si5)	activating phosphorylation of SAPK/JNK in TAK1-D/K63W transfected cells (SAPK/JNK pathway; [3])	activation of p38 MAPK (p38 MAPK)	fraction of cells in the S phase of the cell cycle (H460 cells; H460, 4 h after 20 nM, untreated cells 48%)	DNA synthesis (H460 cells; H460, 24 h after treatment)	cell cycle arrest (H460 cells; NCI-H460, first 24 h)	effect on cells, Crystal Violet (HCC2279 cells; HCC2279, 5 nM)	effect on cells, Crystal Violet (HCC2279 cells; HCC2279, 10 to 20 nM)	induced activating phosphorylation of p38 MAPK in cells expressing dominant-negative Tak1-D (K63W) (p38 MAP kinase pathway; H460, adenoviral K63W vs β-galactosidase vector, 20 nM dsRNA 4 h)	activation of the p38 MAP kinase pathway (phosphorylation of MKK3/6, p38 MAPK) (p38 MAP kinase pathway; listed as Si5)	activating phosphorylation of p38 MAP kinase in TAK1-D/K63W transfected cells (p38 MAP kinase pathway; [3])
si6: control 21-mer siRNA against TLK1 mRNA: GGGUGGAAAUGGCUCAAGUtt (SEQ ID NO: 4) / gtCCCACCUUUACCGAGUUCA (SEQ ID NO: 5) (sense GGGUGGAAAUGGCUCAAGUTT; antisense GTCCCACCUUUACCGAGUUCA; chemistry not given here; one strand is listed 3' to 5') [reference compound]	remain unchanged	drastically reduce the expression level; also recorded: reduced to almost undetectable levels; also recorded: very significant reduction in the expression of TLK1	not	had no effect; also recorded: does not occur; also recorded: No activation	no significant toxicity	had no effect; also recorded: does not occur; also recorded: No activation											
si5: 21-mer siRNA against TLK1 mRNA: GGCUUUUGACCUUUAUGAAtt (SEQ ID NO: 2) / ttCCGAAAACUGGAAAUACUU (SEQ ID NO: 3) (sense GGCUUUUGACCUUUAUGAATT; antisense TTCCGAAAACUGGAAAUACUU; chemistry not given here; one strand is listed 3' to 5')	remain unchanged	drastically reduce the expression level; also recorded: reduced to almost undetectable levels; also recorded: very significant reduction in the expression of TLK1	p38 is activated by phosphorylation	activation of the stress-activated protein kinase jun-amino-terminal kinase (SAPK/JNK) pathway		activation of the p38 MAP kinase pathway; also recorded: able to activate Tak1-D and consecutively p38 MAPK; also recorded: activate the pathway most effectively	phosphorylation and activation of MKK3/6 as well as MKK4	very significant reduction; also recorded: significantly reduced	activate p38 MAPK	27%	ceased almost completely	arrest of NCI-H460 cells in the G1, S, and G2 phase of the cell cycle	small effect on cell growth	significant cell death	significantly reduced	phosphorylation and activation of MKK3/6 as well as MKK4	very significant reduction; also recorded: significantly reduced
